Reference: the supplement of paper PMC10307832

Columns and labels:
Test in all cases: relative viability (nuclei count vs DMSO), 5 days (fraction); higher = more cells survive
[1] = test system: CAL-12T
Outline: (§1)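 Lung cancer cell lines were seeded in 1536-well plates and dosed by pin tool the next day, with either a single drug or a fixed anchor-drug dose combined with five library-drug doses (not always all listed) spaced in √10 steps. Five days later, one step fixed the cells and stained their nuclei (final 0.05% Triton X-100, 1% formaldehyde, 1 ug/ml Hoechst), and nuclei were counted on 4× images. Relative viability is the nuclei count in treated wells divided by the count in vehicle wells, and each value is the median of duplicate plates.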

[2] = test system: COR-L 105
Outline: as §1

[3] = test system: COR-L23
Outline: as §1

[4] = test system: HARA
Outline: as §1

[5] = test system: HCC-15
Outline: as §1

[6] = test system: HCC-366
Outline: as §1

[7] = test system: HCC-44
Outline: as §1

[8] = test system: HCC-827
Outline: as §1

[9] = test system: HOP-62
Outline: as §1

[10] = test system: LC-2-ad
Outline: as §1

[11] = test system: LCLC-97TM1
Outline: as §1

[12] = test system: LU99A
Outline: as §1

[13] = test system: LXF-289
Outline: as §1

[14] = test system: NCI-H1993
Outline: as §1

[15] = test system: NCI-H2009
Outline: as §1

[16] = test system: NCI-H2087
Outline: as §1

[17] = test system: NCI-H2126
Outline: as §1

[18] = test system: NCI-H2170
Outline: as §1

[19] = test system: NCI-H522
Outline: as §1

[20] = test system: PC-14
Outline: as §1

[21] = test system: PC-3 [JPC-3]
Outline: as §1

[22] = test system: SK-MES-1
Outline: as §1

COCC1(CO)C(=O)C2CCN1CC2 (stereo not drawn) [PRIMA-1MET] + O=C(c1cc(Cc2n[nH]c(=O)c3ccccc23)ccc1F)N1CCN(C(=O)C2CC2)CC1 [Olaparib] (partner 8 µM)
relative viability ([1]; first compound 0.2 µM): 0.806 | relative viability ([1]; first compound 0.6325 µM): 0.747 | relative viability ([1]; first compound 2 µM): 0.639 | relative viability ([1]; first compound 6.325 µM): 0.445 | relative viability ([1]; first compound 20 µM): 0.696 | relative viability ([2]; first compound 0.2 µM): 0.687 | relative viability ([2]; first compound 0.6325 µM): 0.685 | relative viability ([2]; first compound 2 µM): 0.713 | relative viability ([2]; first compound 6.325 µM): 0.688 | relative viability ([2]; first compound 20 µM): 0.458 | relative viability ([3]; first compound 0.2 µM): 0.38 | relative viability ([3]; first compound 0.6325 µM): 0.315 | relative viability ([3]; first compound 2 µM): 0.379 | relative viability ([3]; first compound 6.325 µM): 0.315 | relative viability ([3]; first compound 20 µM): 0.106 | relative viability ([4]; first compound 0.2 µM): 0.69 | relative viability ([4]; first compound 0.6325 µM): 0.832 | relative viability ([4]; first compound 2 µM): 0.7 | relative viability ([4]; first compound 6.325 µM): 0.75 | relative viability ([4]; first compound 20 µM): 0.741 | relative viability ([5]; first compound 0.2 µM): 0.789 | relative viability ([5]; first compound 0.6325 µM): 0.772 | relative viability ([5]; first compound 2 µM): 0.746 | relative viability ([5]; first compound 6.325 µM): 0.668 | relative viability ([5]; first compound 20 µM): 0.628 | relative viability ([6]; first compound 0.2 µM): 0.396 | relative viability ([6]; first compound 0.6325 µM): 0.346 | relative viability ([6]; first compound 2 µM): 0.328 | relative viability ([6]; first compound 6.325 µM): 0.34 | relative viability ([6]; first compound 20 µM): 0.0865 | relative viability ([7]; first compound 0.2 µM): 1.06 | relative viability ([7]; first compound 0.6325 µM): 0.969 | relative viability ([7]; first compound 2 µM): 1.12 | relative viability ([7]; first compound 6.325 µM): 0.969 | relative viability ([7]; first compound 20 µM): 0.945 | relative viability ([8]; first compound 0.2 µM): 0.675 | relative viability ([8]; first compound 0.6325 µM): 0.675 | relative viability ([8]; first compound 2 µM): 0.587 | relative viability ([8]; first compound 6.325 µM): 0.684 | relative viability ([8]; first compound 20 µM): 0.627 | relative viability ([9]; first compound 0.2 µM): 0.489 | relative viability ([9]; first compound 0.6325 µM): 0.388 | relative viability ([9]; first compound 2 µM): 0.51 | relative viability ([9]; first compound 6.325 µM): 0.428 | relative viability ([9]; first compound 20 µM): 0.0328 | relative viability ([10]; first compound 0.2 µM): 0.751 | relative viability ([10]; first compound 0.6325 µM): 0.673 | relative viability ([10]; first compound 2 µM): 0.659 | relative viability ([10]; first compound 6.325 µM): 0.68 | relative viability ([10]; first compound 20 µM): 0.7 | relative viability ([11]; first compound 0.2 µM): 0.45 | relative viability ([11]; first compound 0.6325 µM): 0.33 | relative viability ([11]; first compound 2 µM): 0.461 | relative viability ([11]; first compound 6.325 µM): 0.347 | relative viability ([11]; first compound 20 µM): 0.236 | relative viability ([12]; first compound 0.2 µM): 0.312 | relative viability ([12]; first compound 0.6325 µM): 0.24 | relative viability ([12]; first compound 2 µM): 0.263 | relative viability ([12]; first compound 6.325 µM): 0.22 | relative viability ([12]; first compound 20 µM): 0.0441 | relative viability ([13]; first compound 0.2 µM): 1.14 | relative viability ([13]; first compound 0.6325 µM): 1.03 | relative viability ([13]; first compound 2 µM): 1.06 | relative viability ([13]; first compound 6.325 µM): 1.06 | relative viability ([13]; first compound 20 µM): 0.999 | relative viability ([14]; first compound 0.2 µM): 1.21 | relative viability ([14]; first compound 2 µM): 0.95 | relative viability ([14]; first compound 6.325 µM): 1.07 | relative viability ([14]; first compound 20 µM): 0.896 | relative viability ([15]; first compound 0.2 µM): 0.657 | relative viability ([15]; first compound 0.6325 µM): 0.814 | relative viability ([15]; first compound 2 µM): 0.709 | relative viability ([15]; first compound 6.325 µM): 0.631 | relative viability ([15]; first compound 20 µM): 0.202 | relative viability ([16]; first compound 0.6325 µM): 0.589 | relative viability ([16]; first compound 2 µM): 0.749 | relative viability ([16]; first compound 6.325 µM): 0.649 | relative viability ([16]; first compound 20 µM): 0.241 | relative viability ([17]; first compound 0.2 µM): 0.908 | relative viability ([17]; first compound 0.6325 µM): 0.861 | relative viability ([17]; first compound 2 µM): 0.854 | relative viability ([17]; first compound 6.325 µM): 0.972 | relative viability ([17]; first compound 20 µM): 0.831 | relative viability ([18]; first compound 0.2 µM): 0.608 | relative viability ([18]; first compound 0.6325 µM): 0.539 | relative viability ([18]; first compound 2 µM): 0.649 | relative viability ([18]; first compound 6.325 µM): 0.684 | relative viability ([18]; first compound 20 µM): 0.622 | relative viability ([19]; first compound 0.2 µM): 0.656 | relative viability ([19]; first compound 0.6325 µM): 0.599 | relative viability ([19]; first compound 2 µM): 0.625 | relative viability ([19]; first compound 6.325 µM): 0.604 | relative viability ([19]; first compound 20 µM): 0.0709 | relative viability ([20]; first compound 0.2 µM): 0.261 | relative viability ([20]; first compound 0.6325 µM): 0.208 | relative viability ([20]; first compound 2 µM): 0.24 | relative viability ([20]; first compound 6.325 µM): 0.275 | relative viability ([20]; first compound 20 µM): 0.209 | relative viability ([21]; first compound 0.2 µM): 1.4 | relative viability ([21]; first compound 0.6325 µM): 1.26 | relative viability ([21]; first compound 2 µM): 1.11 | relative viability ([21]; first compound 6.325 µM): 1.14 | relative viability ([21]; first compound 20 µM): 0.981 | relative viability ([22]; first compound 0.2 µM): 0.852 | relative viability ([22]; first compound 0.6325 µM): 0.66 | relative viability ([22]; first compound 2 µM): 0.779 | relative viability ([22]; first compound 6.325 µM): 0.622 | relative viability ([22]; first compound 20 µM): 0.622
